“Also recorded” adds a separate entry of the source.
Legend:
[1] = system: HeLa cells expressing wt Cx43; experiment: Scrape loading assay of GJ intercellular communication (GJIC); type: cell-based; conditions: relative to control and parental non-connexin expressing cells, p<0.05
Text: It has been previously shown that inhibition of ZO-1 interaction with Cx43 increases GJ size in HeLa Cx43 and increases the proportion of Triton-insoluble-Cx43 in GJs, without altering Cx43 expression levels or turnover (Hunter et al., 2005). Based on this and other data, it was proposed that ZO-1 inhibits the transition from non-junctional and gap junctional Cx43 (Hunter et al. 2005). The question of where ZO-1 exerted this control to this point is unknown. Here, it is disclosed that ZO-1 regulates movement of connexons in the plasma membrane into GJs. FIG. 1 outlines how this works. The model disclosed herein predicts that inhibiting Cx43/ZO-1 interaction will result in an increase in GJ intercellular communication (GJIC) and a complementary decrease of free-membrane connexons. The well-characterized “scrape loading” technique was used to assess GJIC in HeLa cells expressing wt Cx43.

cryoinjured mouse hearts [2] = conditions: formulation applied coincident with cryo-infarction; 1 week following the injury; O'Quinn et al., Circulation, 2008; cited from earlier work
[3] = system: neonatal rat ventricular myocytes (NVRMs) monolayers and NCRFs; experiment: Adherence of dispersed fibroblasts (NCRFs) to myocyte (NVRM) monolayers; type: cell-based; conditions: 48 hr timecourse
Description: (§1) FIGS. 4A-4F show ZO-1 regulation of differential adhesion between Cx43 expressing cells. A. Segregation of Cx43-GFP cells from DiI-labeled HeLa Cx43 cells. […] C and D. Cohesion patterns of orange-tagged NVRMs from green-tagged NCRFs following control (top) or ACT1ACT1 (bottom) incubation. […] Scale A=5 um, C, D=25 um.
(§2) In another approach neonatal rat ventricular myocytes (NVRMs) were cultured as monolayers and the propensity of added dispersed NCRFs to adhere to this layer was measured. […] In the second approach, green CellTracker-tagged fibroblasts are mixed with orange CellTracker-tagged myocytes and cultured as aggregates (FIG. 4C,D). […] Disclosed herein, and supported by the disclosed data, the regulation of connexon aggregation via ZO-1 PDZ2 can dynamically adjust the level of differential adhesivity between cells in heterocellular contacts (e.g., fibroblasts and myocytes).

[4] = system: Cx43 hemichannel in HeLa Cx43 cells; experiment: Connexon channel (hemichannel) function by EtdBr uptake in live cells; type: cell-based
Description: Functional and biochemical assays were used to assess whether the predicted reduction in free-membrane connexons occurs. First, connexon channel (hemichannel) function was assayed using EtdBr uptake in live cells as described by Saez and co-workers. […] In a variant of this experiment, the cells were also cultured at low density such that no GJs could form. Again consistent with the model, in the absence of GJs for free connexons in the membrane to be recruited to, ACT1 had no affect (FIG. 2).

NVRM / NCRF aggregates = experiment: Mixed aggregate culture of CellTracker-tagged fibroblasts and myocytes; type: cell-based, rat; conditions: relative to control aggregates
Description: as §1, §2

cryoinjured mouse hearts [5] = experiment: Arrhythmia induction (S2-S3 premature beat protocol, overdrive pacing) in Langendorff-perfused hearts one week after cryoinjury; type: in vivo
Description: Following cryoinjury by application of 3 mm liquid nitrogen chilled probe hearts in anesthetized mice were treated with a methycellulose patch containing either ˜9 ug of ACT1 peptide, ˜9 ug of reverse control peptide or no peptide (vehicle control). Mice were then allowed to recover for a week. A week following the injury, Langherdorf-perfused hearts from the mice were subject to 2 types of electrical stimulation inducing arrhythmia: a) S2-S3 premature beat protocol and b) Overdrive pacing. Electrical recordings were made and induced arrhythmic behaviors were categorized including delayed after depolarizations, ectopic beats, ventricular tachycardia, and ventricular fibrillation. […] Severity was graded according to the electrical abnormality noted (e.g. ventricular tachycardia was scored lower than ventricular fibrillation) and the persistence of the electrical abnormality (e.g. intermittent tachycardia was scored lower than persistent tachycardia). […] A similar trend is seen in response to overdrive pacing, although in this case the difference between the treatment and controls are not significant at p=0.05. The “All control” group represents pooled reverse and vehicle control counts.

[6] = S2-S3 premature beat protocol, methycellulose patch ~9 ug peptide at cryoinjury, hearts tested a week later
[7] = overdrive pacing, methycellulose patch ~9 ug peptide at cryoinjury, hearts tested a week later

ACT1: Cx43 CT sequence RPRPDDLEI (SEQ ID NO:1), can be attached to antennapedia sequence: RQPKIWFPNRRKPWKK RPRPDDLEI (SEQ ID NO3) (optionally antennapedia sequence; UniProt P17302 374-382, looked up, fragment)
GJ intercellular communication (GJIC) [1]: significantly increased GJIC | arrhythmia susceptibility of heart after cryo-infarction to the ventricle (cryoinjured mouse hearts [2]): renders the heart refractory to arrhythmia-inducing electrophysiological protocols | adherence of NCRFs to NVRM monolayers [3]: decreased the adherence | adherence of NCRFs to NVRM monolayers ([3]; listed as ACT1ACT1): reduction in fibroblast (NCRF) adhesion | hemichannel activity (EtdBr uptake), cells at low density ([4]; cells cultured at low density such that no GJs could form): no affect | hemichannel activity (EtdBr uptake) ([4]; contacting HeLa Cx43 cells, relative to controls and non-connexin expressing HeLa cells, p<0.05): significantly decreases EtdBr uptake; also recorded: decreased hemichannel activity | exclusion/loss of NCRFs from aggregates (NVRM / NCRF aggregates): increased exclusion/loss of NCRFs | segregation of myocytes and fibroblasts in aggregates / cohesion index (% co-localization orange and green) of NVRMs (NVRM / NCRF aggregates): tend to segregate into cohesive domains of like cells | exclusion/loss of NCRFs from aggregates (NVRM / NCRF aggregates; listed as ACT1ACT1): Fibroblasts are excluded more | segregation of myocytes and fibroblasts in aggregates / cohesion index (% co-localization orange and green) of NVRMs (NVRM / NCRF aggregates; listed as ACT1ACT1): is higher | S2-S3 Protocol Arrhythmic (numbers of mice displaying an arrhythmia response) (cryoinjured mouse hearts [5]; [6]): 1 | S2-S3 Protocol Stable (numbers of mice) (cryoinjured mouse hearts [5]; [6]): 6 | Overdrive Pacing Arrhythmia (numbers of mice displaying an arrhythmia response) (cryoinjured mouse hearts [5]; [7]): 2 | Overdrive Pacing Stable (numbers of mice) (cryoinjured mouse hearts [5]; [7]): 5 | Arrhythmia Severity Index Mean (cryoinjured mouse hearts [5]; severity graded by electrical abnormality and its persistence, patch ~9 ug peptide, a week after cryoinjury): 1.71 | electrical stability in response to the S2-S3 arrhythmia induction protocol (cryoinjured mouse hearts [5]; vs controls, chi squares p=0.05 or below): improved electrical stability

— patent publication US20100286762A1, “Compositions and Methods for Ameliorating Clinical Electrical Disturbances” (MUSC Foundation for Research Development, priority 2009, published 2010)
